Measured values as given in patent US20110201105A1, “LACTATION-ASSOCIATED POLYPEPTIDES” (Dairy Australia Limited, priority 2007, published 2011).

How the values were obtained:
[1] = test system: HSC-2 oral epithelial cells; test: Cell viability assay to assess anti- and pro-apoptotic effects (vinblastine, Alamar Blue); assay type: cell-based; settings: HSC-2 cells
Description: Plasmids containing Tammar wallaby LAMs were directionally cloned into the expression vector pCMV Sport 6.0, and then transfected into the human kidney cell line HK293. A total of 1 μg of LAM-containing plasmid DNA and 10 ng of pEGFP-C1 plasmid was introduced into 70% confluent HK293 cells in 2 cm^2 wells containing 500 ul of opti-MEM-1 media. Transfection success was assessed by observing green fluorescence of cells by fluorescent microscopy. After 48 hours conditioned media containing the secreted polypeptide was collected and frozen at −20° C. The media containing the secreted polypeptides was then used directly in a variety of bioactivity assays. For the assays described below, samples of secreted polypeptides were aliquoted into individual wells of 96 or 384 well plates and stored, prior to assaying, either frozen or lyophilized.
A negative control created by transfection with an insertless vector was used in all assays. For the assays described in Examples 4A, 4B, 4C and 4D results for samples were in the form of relative fluorescence units (RFU) as described herein. […] In some cases, RFU less than two standard deviations from the mean were considered significant if the LAM sample in question produced a positive result in another assay.
Vinblastine is a commonly used cytotoxic agent used in chemotherapy. It induces apoptosis in a wide variety of cell types. Caspase activation and DNA fragmentation are hallmarks of the apoptotic process.
Aliquots of the secreted polypeptide samples in 96 well plates were pipetted onto HSC-2 oral epithelial cells and the cells left for 24 hours. After this time, the cells were treated with vinblastine to induce apoptosis. After a further 48 hours, the cells were analyzed for survival using a vital dye, namely Alamar Blue (resazurin) fluorescent dye (TGR BioSciences Pty Ltd, Adelaide, Australia). This dye method is a TGR proprietary assay technology and as such would be known by a person skilled in the art. Internal controls for induction of cell death via apoptosis as well as assay performance were also included on each plate. Cell survival measurements with this technique reflected the degree of apoptosis.

MDA-MB-231 cells = test: MDA-MD-231 Matrigel outgrowth assay; assay type: cell-based; settings: MDA-MB-231 cells on Matrigel, after 5 days, compared to control (OPTIMEM)
Description: FIG. 14: Matrigel outgrowth assay. Monolayers of cells (MDA-MD-MB231) were grown to 80% confluence and collected during log phase. 5×10^3 cells were added per well (96 well format) on top of preset Matrigel (50 ul). 50 ul of bioactive supematant was added per well. Colony outgrowth was monitored over the course of the experiment and photographed after 2 (FIG. 14A) and 5 (FIG. 14B) days.
Monolayers of cells (MDA-MD-MB231) were grown in DMEM+10% FCS to 80% confluence and collected during log phase. Cells were removed from plastic using versene/trypsin (2 min/370C) and resuspended in 10 ml media. Cell were washed thrice with PBS and centrifugation. 5×10^3 cells were added per well (96 well format) on top of preset Matrigel (50 ul). 50 ul of bioactive supernatant was added per well. Colony outgrowth was monitored over the course of the experiment and photographed after 2 and 5 days.

Substance: LAM 13: PLA2G1B; tammar wallaby polypeptide SEQ ID NO 43, bovine polypeptide SEQ ID NO 103
- RFU (anti-apoptotic activity) ([1]; vinblastine, Alamar Blue, Mean RFU 679787, SD RFU 39919, negative control 696444 RFU): 779746 RFU
- anti- or pro-apoptotic activity (RFU versus mean) ([1]; text summary of Tables 8-11): anti-apoptotic activity
- proliferation of cells (MDA-MB-231 cells): increased proliferation of cells
